Tested on: human AML cell line MV4;11
Test: Nude mouse xenograft model derived from human AML cell line MV4;11: tumor growth
Format: in vivo
Details: 21 days, MV4;11 xenograft
Experimental: MV4;11 (CRL-9591) cells were obtained from ATCC. According to the Catalogue of Somatic Mutations in Cancer of the Wellcome Trust Sanger Institute, UK, this cell line carries a mutation in the FLT3 gene. Cells were cultured in T175 tissue culture flasks at 37° C. and 5% CO2. The medium used was IMDM supplemented with 10% fetal calf serum, 1% NEAA, 1% sodium pyruvate and 1% glutamine.
Mice were 8-9 week-old athymic female BomTac: NMRI-Foxn1^nu purchased from Taconic, Denmark. After arrival in the animal facility, mice were allowed to adjust to ambient conditions for at least 3 days before they were used for experiments. They were housed in Macrolon® type II cages in groups of 5 under standardized conditions at 21.5±1.5° C. temperature and 55±10% humidity. Standardized diet (PROVIMI KLIBA) and autoclaved tap water were provided ad libitum.
To establish subcutaneous tumors, MV4;11 cells were harvested and resuspended in PBS+5% FCS at 5×10^7 cells/ml. 50 μl of the cell suspension containing 2.5×10^6 cells was then injected subcutaneously into the right flank of the mice (1 site per mouse). Growth factor reduced BD Matrigel™ Matrix (BD Biosciences) was added to the cell suspension at a ratio of 1:1 before the injection.
Volasertib (BI 6727) was dissolved in hydrochloric acid (0.1 N), diluted with 0.9% NaCl and injected intravenously into the tail vein. An administration volume of 10 ml per kg body weight was used. The solution was freshly made up each injection day. Decitabine was dissolved in 0.9% NaCl and administered i.p. An administration volume of 10 ml per kg body weight was used.
The tumor diameter was measured three times a week with a caliper. The volume of each tumor [in mm^3] was calculated according to the formula “tumor volume=length*diameter^2*π/6”. To monitor side effects of treatment, mice were inspected daily for abnormalities and body weight was determined three times a week. […] In addition animals with tumor sizes exceeding 2000 mm^3 were sacrificed early during the studies for ethical reasons.
(§1) Animals were treated for 21 days.
as §1, §1

SMILES | T/C (ratio of median tumor volume of treated vs. control tumors) (Volasertib alone 10 mg/kg i.v. once weekly) [%] | T/C (ratio of median tumor volume of treated vs. control tumors) (Volasertib alone 20 mg/kg i.v. once weekly) [%] | T/C (ratio of median tumor volume of treated vs. control tumors) (decitabine alone 1.25 mg/kg i.p. twice weekly on two consecutive days) [%] | T/C (ratio of median tumor volume of treated vs. control tumors) (decitabine alone 2.5 mg/kg i.p. twice weekly on two consecutive days) [%]
CC[C@@H]1C(=O)N(C)c2cnc(Nc3ccc(C(=O)N[C@H]4CC[C@H](N5CCN(CC6CC6)CC5)CC4)cc3OC)nc2N1C(C)C [Volasertib, N-[trans-4-[4-(cyclopropylmethyl)-1-piperazinyl]cyclohexyl]-4-[[(7R)-7-ethyl-5,6,7,8-tetrahydro-5-methyl-8-(1-methylethyl)-6-oxo-2-pteridinyl]amino]-3-methoxy-benzamide] | 76 | 38 | – | –
Nc1ncn([C@H]2C[C@H](O)[C@@H](CO)O2)c(=O)n1 [decitabine, Decitabine] | – | – | 59 | 53

Source: patent publication US20170157159A1, “COMBINATION TREATMENT OF ACUTE MYELOID LEUKEMIA AND MYELODYSPLASTIC SYNDROME I” (Boehringer Ingelheim International GmbH, priority 2013, published 2017)
